What all share (experiment): combination Emax (second highest fraction inhibited in the dose matrix, 72 h); higher = more inhibition; extreme values may be limits of the assay
The subject of test [1] is TK (B-Cell Non-Hodgkin's Lymphoma). In a few lines:
(§1)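 Bliss excess equals the observed combination effect minus the expected value EA + EB − EA·EB, where EA and EB are the effects of each agent alone. Combination Emax is the second-highest inhibition within the matrix. Inhibition was scaled from CellTiter-Glo 2.0 luminescence, with 0 set by vehicle wells and 1 by blank wells, after 72 hours of two-drug dosing of cells plated in 1536-well plates.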

The test system of test [2] is HT-3 (Cervical Carcinoma). Summed up:
as §1

The subject of test [3] is SBC-5 (Small Cell Lung Carcinoma). In a few lines:
as §1

Test [4] relates to SW1463 (Colorectal Carcinoma). In a few lines:
as §1

For test [5], the system named is NCI-H1048 (Small Cell Lung Carcinoma). In a few lines: as §1
For test [6], the system named is NTERA-2-cl-D1 (Other Solid Carcinomas). In a few lines: as §1
Test [7] has as its system NCI-H1435 (Non-Small Cell Lung Carcinoma). In a few lines:
as §1

Another test has as its system GCIY (Gastric Carcinoma). In a few lines:
as §1

In test [8] the test system is C2BBe1 (Colorectal Carcinoma). In a few lines: as §1
Test [9] concerns SCC90 (Head and Neck Carcinoma). In a few lines:
as §1

The subject of test [10] is OVKATE (Ovarian Carcinoma). Summed up:
as §1

Test [11] deals with BC-1 (B-Cell Non-Hodgkin's Lymphoma). In a few lines:
as §1

In another test the test system is HT-144 (Melanoma). Summed up:
as §1

In a further test the test system is C32 (Melanoma). Summed up: as §1
The subject of a further test is DK-MG (Glioblastoma). In a few lines:
as §1

The subject of test [12] is MDA-MB-175-VII (Breast Carcinoma). In a few lines:
as §1

A further test concerns SK-MEL-24 (Melanoma). In a few lines:
as §1

In the next test the test system is SK-N-DZ (Neuroblastoma). In a few lines:
as §1

Test [13] relates to NCI-H1975 (Lung Adenocarcinoma). In a few lines: as §1

`CN(C)CCCOc1ccc(-c2ccc3ncc4c(c3c2)n(C2CCOCC2)c(=O)n4C)cn1` [AZD0156] + C=CCn1c(=O)c2cnc(Nc3ccc(N4CCN(C)CC4)cc3)nc2n1-c1cccc(C(C)(C)O)n1 [AZD1775] (first compound max 1 µM, partner max 1 µM): the “combination Emax” value in [1] is 0.945; in [2] it was 0.331; in [3], 0.423; in test [4] it was 0.422; in test [5], 0.664; in test [6], 0.376. In addition, the “combination Emax” value was 0.193 in [7]; 0.63 with GCIY (Gastric Carcinoma); 0.209 in test [8]; 0.777 in test [9]; 0.336 in test [10]; 0.999 in test [11]. Also, the “combination Emax” value in the test on HT-144 (Melanoma) turned out to be 0.587; in the test on C32 (Melanoma) it was 0.442; in the test on DK-MG (Glioblastoma), 0.331; in [12], 0.299; with SK-MEL-24 (Melanoma), 0.443; in the test with SK-N-DZ (Neuroblastoma) it was 0.962. In test [13], the “combination Emax” value was 0.356.

Regarding `CN(C)CCCOc1ccc(-c2ccc3ncc4c(c3c2)n(C2CCOCC2)c(=O)n4C)cn1` [AZD0156] + CCN(CCO)CCCOc1ccc2c(Nc3cc(CC(=O)Nc4cccc(F)c4)[nH]n3)ncnc2c1 [AZD2811] (first compound max 1 µM, 7x7, partner max 1 µM), the “combination Emax” value was found to be 0.273 in test [1]; 0.0658 in test [2]; 0.313 in [3]; 0.108 in test [4]; 0.547 in test [5]; 0.469 in [6]. In addition, the “combination Emax” value was 0.101 in test [7]; 0.378 with GCIY (Gastric Carcinoma); 0.114 in test [8]; 0.231 in test [9]; 0.127 in [10]; 0.752 in test [11]. Also, the “combination Emax” value amounted to 0.232 in the test on HT-144 (Melanoma); 0.14 in the test on C32 (Melanoma); 0.204 in the test on DK-MG (Glioblastoma); 0.208 in test [12]; 0.16 in the test on SK-MEL-24 (Melanoma); 0.391 with SK-N-DZ (Neuroblastoma). For the same compound, the “combination Emax” value in [13] turned out to be 0.3.

Consider `CN(C)CCCOc1ccc(-c2ccc3ncc4c(c3c2)n(C2CCOCC2)c(=O)n4C)cn1` [AZD0156] + C[C@@H]1COCCN1C2=NC(=NC(=C2)C3(CC3)[S@](=N)(=O)C)C4=C5C=CNC5=NC=C4 [AZD6738] (first compound max 1 µM, 7x7, partner max 10 µM), for which the “combination Emax” value in [1] amounted to 0.907; in [2], 0.609; in [3], 0.813; in [4], 0.558; in [5], 0.468; in test [6], 0.595. Moreover, the “combination Emax” value in [7] worked out at 0.158; in the test on GCIY (Gastric Carcinoma), 0.851; in test [8], 0.434; in test [9], 0.358; in test [10], 0.257; in test [11] it was 0.936. Further, the “combination Emax” value was found to be 0.721 in the test on HT-144 (Melanoma); 0.666 in the test with C32 (Melanoma); 0.242 in the test on DK-MG (Glioblastoma); 0.342 in test [12]; 0.457 in the test on SK-MEL-24 (Melanoma); 0.975 with SK-N-DZ (Neuroblastoma). The “combination Emax” value in [13] worked out at 0.407.

On to `C=CCn1c(=O)c2cnc(Nc3ccc(N4CCN(C)CC4)cc3)nc2n1-c1cccc(C(C)(C)O)n1` [AZD1775] + C[C@@H]1COCCN1C2=NC(=NC(=C2)C3(CC3)[S@](=N)(=O)C)C4=C5C=CNC5=NC=C4 [AZD6738] (first compound max 1 µM, partner max 10 µM), for which the “combination Emax” value in [1] worked out at 0.94; in [2], 0.832; in test [3], 0.929; in [4], 0.822; in test [5] it was 0.886; in test [6], 0.943. Also, the “combination Emax” value in test [7] amounted to 0.398; in the test with GCIY (Gastric Carcinoma), 0.947; in test [8], 0.486; in test [9], 0.927; in [10], 0.422; in test [11] it was 1. The “combination Emax” value in the test on HT-144 (Melanoma) worked out at 0.777; with C32 (Melanoma), 0.73; with DK-MG (Glioblastoma), 0.42; in test [12], 0.405; in the test with SK-MEL-24 (Melanoma) it was 0.725; in the test with SK-N-DZ (Neuroblastoma), 1. Moreover, the “combination Emax” value in test [13] was found to be 0.477.

For `COc1nnc2ccc(N3CCC(c4ccc(OCCN5CCN(C)C(=O)[C@H]5C)cc4)CC3)nn12` [AZD5153] + CN(CC[C@H](CSC1=CC=CC=C1)NC2=C(C=C(C=C2)S(=O)(=O)NC(=O)C3=CC=C(C=C3)N4CCC(CC4)[C@H](C5=CC=CC=C5C6=CC=C(C=C6)Cl)O)S(=O)(=O)C(F)(F)F)CCO [AZD4320] (first compound max 1 µM, 7x7, partner max 1 µM), the “combination Emax” value in [1] was found to be 1; in test [2] it was 0.3; in [3], 0.534; in test [5], 0.801; in test [8], 0.611; in [9], 0.588. Also, the “combination Emax” value in the test with HT-144 (Melanoma) stood at 0.454; with C32 (Melanoma) it was 0.444; in the test with DK-MG (Glioblastoma), 0.614; in the test with SK-N-DZ (Neuroblastoma) it was 0.922; in test [13], 0.643.

On to `Cc1c2c(nn1C)CSCc1cc(n(C)n1)CSc1cc(c3ccccc3c1)OCCCc1c(C(=O)O)n(C)c3c-2c(Cl)ccc13` [AZD5991] + Cn1cnc2c(F)c(Nc3ccc(Br)cc3Cl)c(C(=O)NOCCO)cc21 [Selumetinib] (first compound max 1 µM, 7x7, partner max 3 µM), for which the “combination Emax” value in test [1] was 0.114; in test [2], 0.789; in [3] it was 0.415; in test [4], 0.547; in test [5] it was 0.971; in test [6], 0.562. Also, the “combination Emax” value in test [7] stood at 0.26; in the test with GCIY (Gastric Carcinoma), 0.465; in test [8], 0.425; in [9] it was 0.99; in test [10] it was 0.265; in [11] it was 1. For the same compound, the “combination Emax” value is 1 in the test with HT-144 (Melanoma); 1 with C32 (Melanoma); 0.689 with DK-MG (Glioblastoma); 0.705 with SK-MEL-24 (Melanoma); 0.252 with SK-N-DZ (Neuroblastoma); 0.816 in [13].

Consider `CC(=O)c1c(C)c2cnc(Nc3ccc(N4CCNCC4)cn3)nc2n(C2CCCC2)c1=O` [Palbociclib] + CN(CC[C@H](CSC1=CC=CC=C1)NC2=C(C=C(C=C2)S(=O)(=O)NC(=O)C3=CC=C(C=C3)N4CCC(CC4)[C@H](C5=CC=CC=C5C6=CC=C(C=C6)Cl)O)S(=O)(=O)C(F)(F)F)CCO [AZD4320] (first compound max 10 µM, 7x7, partner max 1 µM), for which the “combination Emax” value in test [1] was found to be 0.996; in [2] it was 0.0805; in test [3], 0.251; in [5], 0.677; in [8] it was 0.318; in test [9], 0.862. Also, the “combination Emax” value turned out to be 0.753 in the test on HT-144 (Melanoma); 0.209 with C32 (Melanoma); 0.389 in the test on DK-MG (Glioblastoma); 0.992 in the test on SK-N-DZ (Neuroblastoma); 0.471 in [13].

The values above are taken from the supplement of paper PMC11061612.
